Experiments:
[1] = target: Recombinant human EGLN-1-179/426 (Homo sapiens (Human), UniProt Q9GZT9); assay: EGLN-1 Activity Assay (MALDI-TOF MS); assay type: biochemical; conditions: read-out: EGLIN1 IC50
Experimental: (§1) Hydroxylated peptide product is identified from substrate by the gain of 16 Da. Data defined as percent conversion of substrate to product is analyzed in GraphPad Prism 4 to calculate IC50 values.

EPO = assay: Mouse Serum EPO Assay (mouse ischemic hindlimb study); assay type: in vivo; conditions: for EPO response: in vivo response
Experimental: (§2) Mouse Ischemic Hindlimb Study
(§3) All animal work is conducted in accordance with the Guide for the Care and Use of Laboratory Animals (National Academy of Sciences; Copyright© 1996) and the Institutional Animal Care and Use Committee guidelines at Procter and Gamble Pharmaceuticals. We studied 9-10 week old male C57B1/6 mice from Charles River Laboratory (Portage, Mich.). The mice are orally dosed with vehicle (aqueous carbonate buffer, 50 mM; pH 9.0) or compound 1 in vehicle at 50 mg/kg or 100 mg/kg. The animals are dosed three times: day 1 at 8 am and 5 pm, day 2 at 8 am. One hour after the first dose, unilateral arterial ligation is performed under anesthesia using isoflurane. The femoral artery is ligated proximal to the origin of the popliteal artery. The contralateral limb underwent a sham surgical procedure. Ligation is performed in an alternating fashion between right and left hindlimbs. Two hours after 8 am dosing on day 2, we obtained blood by ventricular stick while the mice are anesthetized with isoflurane. Serum samples for EPO analysis are obtained using gel clot serum separation tubes. Heart, liver, and gastrocnemius muscles are harvested, snap-frozen in liquid nitrogen, and stored in −80° C. until use.
The mouse serum EPO is detected using Mouse Quantikine Erythropoietin ELISA kit from R&D Systems according to manufacturer's instructions.

[2] = target: Full-length recombinant human EGLN-3 (His-MBP-TVMV-EGLN-3 fusion) (Homo sapiens (Human), UniProt Q9H6Z9); assay: EGLN-3 enzyme activity assay (MALDI-TOF MS); assay type: biochemical; conditions: read-out: EGLIN3 IC50
Experimental: as §1

HIF-1α = assay: Mouse Tissue HIF Western Blot Analysis; assay type: in vivo; conditions: FIG. 1; immunoblot analysis of nuclear extracts
Experimental: as §2, §3
Mouse Tissue HIF Western Blot Analysis
Tissues from mice stored at −80° C. are powdered with mortar and pestle chilled with liquid nitrogen. […]

Sequence of Full-length recombinant human EGLN-3 (His-MBP-TVMV-EGLN-3 fusion) (Q9H6Z9 whole entry, the tested form may be a part): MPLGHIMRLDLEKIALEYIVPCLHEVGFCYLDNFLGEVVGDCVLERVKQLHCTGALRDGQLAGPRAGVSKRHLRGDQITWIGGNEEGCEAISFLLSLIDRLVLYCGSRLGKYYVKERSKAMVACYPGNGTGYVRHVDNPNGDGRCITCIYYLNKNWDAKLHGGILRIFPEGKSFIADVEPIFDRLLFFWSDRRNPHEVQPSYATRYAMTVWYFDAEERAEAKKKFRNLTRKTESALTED
Sequence of Recombinant human EGLN-1-179/426 (Q9GZT9 179-426): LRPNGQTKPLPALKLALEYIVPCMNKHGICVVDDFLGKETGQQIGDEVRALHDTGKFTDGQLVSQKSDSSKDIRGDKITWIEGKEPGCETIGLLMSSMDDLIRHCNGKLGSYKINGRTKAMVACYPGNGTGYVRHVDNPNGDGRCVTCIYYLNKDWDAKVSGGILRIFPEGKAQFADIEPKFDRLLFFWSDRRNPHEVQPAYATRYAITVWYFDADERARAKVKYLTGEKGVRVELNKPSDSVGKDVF

Molecule | IC50 [1] | EPO response (EPO) | IC50 [2] | also measured
O=C(O)CNC(=O)c1ncc(-c2cccc(-c3nn[nH]n3)c2)cc1O [({3-Hydroxy-5-[3-(2H-tetrazol-5-yl)phenyl]-pyridine-2-carbonyl}-amino)-acetic acid] | 0.4 µM | – | – | –
COC(=O)CNC(=O)c1ncc(-c2cccc(C(=O)N3CCCC3)c2)cc1O [({3-Hydroxy-5-[3-(pyrrolidine-1-carbonyl)-phenyl]-pyridine-2-carbonyl}-amino)-acetic acid methyl ester] | 2.5 µM | – | – | –
O=C(O)CNC(=O)c1ncc(-c2cccc(C(=O)N3CCCC3)c2)cc1O [({3-Hydroxy-5-[3-(pyrrolidine-1-carbonyl)phenyl]-pyridine-2-carbonyl}amino)-acetic acid] | 0.3 µM | – | – | –
Cc1ccc(-c2ccc(C(=O)NCC(=O)O)c(O)c2)cc1 [[(3-Hydroxy-4′-methyl-biphenyl-4-carbonyl)-amino]-acetic acid] | 20 µM | yes | – | –
COC(=O)CNC(=O)c1ncc(-c2ccc(C)cc2)cc1O [[(3-Hydroxy-5-(4-methylphenyl)-pyridine-2-carbonyl)-amino]-acetic acid methyl ester] | 4.1 µM | – | 52.3 µM | –
Cc1ccc(-c2cnc(C(=O)NCC(=O)O)c(O)c2)cc1 [[(3-Hydroxy-5-(4-methylphenyl)pyridine-2-carbonyl)amino]-acetic acid] | – | yes | 0.18 µM | –
COC(=O)CNC(=O)c1ncc(-c2ccccc2Cl)cc1O [{[5-(2-Chloro-phenyl)-3-hydroxy-pyridine-2-carbonyl]-amino}-acetic acid methyl ester] | – | yes | 37.5 µM | –
O=C(O)CNC(=O)c1ncc(-c2ccccc2Cl)cc1O [{[5-(2-Chlorophenyl)-3-hydroxypyridine-2-carbonyl]amino}-acetic acid] | – | yes | 0.39 µM | –
Cc1ccc(Cl)cc1-c1cnc(C(=O)NCC(=O)O)c(O)c1 [{[5-(2-Methyl-5-chlorophenyl)-3-hydroxypyridine-2-carbonyl]amino}-acetic acid] | 2.5 µM | – | – | –
COC(=O)CNC(=O)c1ncc(-c2cccc(C(N)=O)c2)cc1O [{[5-(3-Carbamoyl-phenyl)-3-hydroxy-pyridine-2-carbonyl]-amino}-acetic acid methyl ester] | 11.2 µM | – | – | –
O=C(O)CNC(=O)c1ncc(-c2cccc(Cl)c2)cc1O [{[5-(3-Chlorophenyl)-3-hydroxypyridine-2-carbonyl]amino}-acetic acid] | – | yes | – | erythropoietin level versus vehicle in mouse serum (EPO; FIG. 2, after oral dosing): elevated; stabilization of HIF-1α in mouse liver (HIF-1α): stabilization
N#Cc1cccc(-c2cnc(C(=O)NCC(=O)O)c(O)c2)c1 [{[5-(3-Cyanophenyl)-3-hydroxypyridine-2-carbonyl]amino}-acetic acid] | 0.19 µM | – | – | –
COC(=O)CNC(=O)c1ncc(-c2cccc(Cl)c2)cc1O [{[5-(3-chloro-phenyl)-3-hydroxy-pyridine-2-carbonyl]-amino}-acetic acid methyl ester] | 2.8 µM | yes | 21.4 µM | –
COC(=O)CNC(=O)c1ncc(-c2ccc(Cl)cc2)cc1O [{[5-(4-Chloro-phenyl)-3-hydroxy-pyridine-2-carbonyl]-amino}-acetic acid methyl ester] | 3.7 µM | – | – | –
N#Cc1ccc(-c2cnc(C(=O)NCC(=O)O)c(O)c2)cc1 [{[5-(4-Cyanophenyl)-3-hydroxypyridine-2-carbonyl]amino}-acetic acid] | – | yes | 0.56 µM | –
CC(C)Oc1ccc(-c2cnc(C(=O)NCC(=O)O)c(O)c2)cc1 [{[5-(4-Isopropoxyphenyl)-3-hydroxypyridine-2-carbonyl]amino}-acetic acid] | 1.6 µM | – | – | –
CC(C)c1ccc(-c2cnc(C(=O)NCC(=O)O)c(O)c2)cc1 [{[5-(4-Isopropylphenyl)-3-hydroxypyridine-2-carbonyl]amino}-acetic acid] | 0.44 µM | – | – | –
{[5-(4-Chlorophenyl)-3-hydroxypyridine-2-carbonyl]amino}-acetic acid | – | yes | 0.083 µM | –

Source: patent publication US8598210B2, “Prolyl hydroxylase inhibitors and methods of use” (Akebia Therapeutics Inc., priority 2006, dated 2013)
